Laboratory results published in PMC4002244, “ACE2 deficiency increases NADPH‐mediated oxidative stress in the kidney” (Physiological Reports, 2014).

Columns and labels:
[1] = target: T1, ACE2 (Mus musculus, UniProt Q8R0I0); assay: Ex vivo Ang II degradation by kidney cortex lysates with ACE2 inhibitor; assay type: biochemical; settings: WT lysates (6 μg protein, n = 5), MLN-4760 10^-6 mol/L, Ang II 10^-9 mol/L, PBS pH 7.4 with 5 μmol/L ZnCl2, 37°C, up to 24 h, Ang II by ELISA; P < 0.05 vs. WT without MLN-4760; similar to ACE2KO
T1 construct: from tissue; host or cells: kidney cortex of wild-type C57BL/6 mice (littermates of the ACE2KO mice)
Experimental: (§1) Kidney cortex lysates (from ACE2 KO and WT mice) corresponding to 6 μg of total protein were individually incubated with 10^−9mol/L angiotensin II (Sigma‐Aldrich, St. Louis, MO) by constant shaking for up to 24 h at 37°C in PBS pH 7.4 containing 5 μmol/L ZnCl2. The incubation was performed with or without addition of the specific ACE2 inhibitor, MLN‐4760 (10^−6mol/L). Following the incubation, samples were diluted 1/5 in EDTA‐containing buffer (0.1 mol/L phosphate buffer, pH 7.4 containing 0.15 mol/L NaCl, 1 mmol/L EDTA, 0.1% BSA) and immediately frozen. The quantity of Ang II in the diluted samples was measured using enzyme‐linked immunosorbent assay kits (SPIBio, Cayman Chemical). Angiotensin quantity in each sample was expressed as a percentage ratio of the Ang remaining after a given incubation time to the initial Ang load (100%).

[2] = Ex vivo degradation of exogenous Ang II in kidney cortex lysates; assay type: in vitro ADME, mouse; settings: 6 μg protein, Ang II 10^-9 mol/L, PBS pH 7.4 with 5 μmol/L ZnCl2, 37°C, ELISA
Experimental: as §1

[3] = test system: kidney cortex NADPH oxidase activity; assay: Kidney cortex NADPH oxidase activity (lucigenin chemiluminescence) in ACE2KO mice after angiotensin receptor blockade; assay type: in vivo, mouse; settings: for Kidney cortex NADPH oxidase activity, percent of WT controls: male ACE2KO C57BL/6 mice, 2 weeks
Experimental: NADPH oxidase activity in kidney cortex was measured using lucigenin (5 μmol/L) and NADPH (100 μmol/L) as previously described (Block et al. 2007). Light emission was recorded every 1 min over a 10‐min period at room temperature in a 20/20^n luminometer (Turner Biosystems, Sunnyvale, CA). Superoxide anion production was expressed as relative chemiluminescence (light) units (RLU)/μg protein. There was no measurable activity in the absence of NADPH. Protein content was measured using the BCA protein assay reagent (Pierce, Rockford, IL).
ACE2KO and control mice at the age of 20–30 weeks were treated with losartan (Triangle Compounding Pharmacy, Cary, NC) or placebo for 2 weeks. Losartan was administered to ACE2KO at two doses: 10 mg/kg/day (n = 4) and 30 mg/kg/day (n = 5) in drinking water in two separate experiments. Another group of ACE2KO (n = 6) and WT controls (n = 5 and n = 10) were given vehicle drug, with similar taste and consistency. Water bottles were weighed daily to document accurate drug consumption. At the end of 2 weeks of treatment with losartan, we proceeded to measure markers of oxidative stress as described above.
A separate group of male ACE2 knockout mice at 35 weeks of age underwent either sham operation (n = 8) or osmotic minipump (Alzet 1002) implantation to infuse the AT2 receptor blocker, PD123319 (2 mg/kg/day, n = 8) for 14 days. Pumps were implanted subcutaneously on the back between the shoulder blades and hips while animals were anesthetized by inhalation of isoflurane anesthetic. At the end of 2 weeks of treatment with PD123319, we proceeded to measure markers of oxidative stress as described above.

T1 sequence (Q8R0I0 18-805): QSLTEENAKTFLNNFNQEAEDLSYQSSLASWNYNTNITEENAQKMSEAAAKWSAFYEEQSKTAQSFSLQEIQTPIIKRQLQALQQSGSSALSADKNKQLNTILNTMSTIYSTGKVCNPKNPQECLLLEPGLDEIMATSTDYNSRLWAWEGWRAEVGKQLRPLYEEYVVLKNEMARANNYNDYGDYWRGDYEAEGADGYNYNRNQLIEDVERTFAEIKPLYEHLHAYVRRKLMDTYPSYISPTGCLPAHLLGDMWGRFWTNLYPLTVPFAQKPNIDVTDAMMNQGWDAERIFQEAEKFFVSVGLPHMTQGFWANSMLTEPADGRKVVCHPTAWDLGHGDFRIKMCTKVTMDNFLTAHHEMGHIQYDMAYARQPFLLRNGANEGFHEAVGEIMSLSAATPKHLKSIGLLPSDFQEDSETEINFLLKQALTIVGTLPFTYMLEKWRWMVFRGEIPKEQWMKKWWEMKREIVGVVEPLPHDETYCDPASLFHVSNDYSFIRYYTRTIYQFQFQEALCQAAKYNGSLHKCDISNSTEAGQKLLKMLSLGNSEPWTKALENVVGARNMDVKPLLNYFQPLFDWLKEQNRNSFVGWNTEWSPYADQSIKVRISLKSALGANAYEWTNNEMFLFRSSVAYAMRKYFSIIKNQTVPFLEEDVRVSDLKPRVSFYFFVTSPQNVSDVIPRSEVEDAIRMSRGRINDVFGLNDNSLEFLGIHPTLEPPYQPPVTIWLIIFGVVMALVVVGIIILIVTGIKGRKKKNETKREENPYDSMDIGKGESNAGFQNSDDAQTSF

In the case of `CC(C)C[C@H](N[C@@H](Cc1cncn1Cc1cc(Cl)cc(Cl)c1)C(=O)O)C(=O)O` [MLN-4760], the “Effect of co-incubation on Ang II degradation rate by WT kidney cortex lysates” value [1] is reported as “significant decrease in Ang II degradation rate”.
In the case of `CC[C@H](C)[C@H](NC(=O)[C@H](Cc1ccc(O)cc1)NC(=O)[C@@H](NC(=O)[C@H](CCCNC(=N)N)NC(=O)[C@@H](N)CC(=O)O)C(C)C)C(=O)N[C@@H](Cc1cnc[nH]1)C(=O)N1CCC[C@H]1C(=O)N[C@@H](Cc1ccccc1)C(=O)O` [Ang II, angiotensin II], the “Ang II degradation by WT versus ACE2KO kidney cortex lysates (in words)” value ([2]; 6 and 24 h of incubation, n = 5 per group, P < 0.05) is reported as “kidney lysates from WT mice degrade significantly more Ang II than the lysates obtained from ACE2KO” and the metabolised ([2]; mouse, kidney cortex lysates (ACE2 KO, with MLN-4760 (ACE2 inhibitor, 10^-6 mol/L) in the WT lysates), lysates of ACE2 KO or WT + MLN-4760 (10^-6 mol/L), constant shaking, up to 24 h, n = 5, read-out: Proportion of Ang II degraded in kidney cortex lysates despite the lack of ACE2) is reported as about 50%.
In the case of `Cc1cc(Cn2cnc3c2C[C@@H](C(=O)O)N(C(=O)C(c2ccccc2)c2ccccc2)C3)ccc1N(C)C` [PD123319], the “Kidney NADPH oxidase activity, percent of sham-operated ACE2KO mice” value ([3]; male ACE2KO mice, 35 weeks old, PD123319 2 mg/kg/day subcutaneous osmotic minipump, 14 days, n = 8, sham-operated ACE2KO 100 ± 21%, P = 0.541, mean ± SEM, SEM) is reported as 83 ± 17%.
With `CCCCc1nc(Cl)c(CO)n1Cc1ccc(-c2ccccc2-c2nn[nH]n2)cc1` [losartan] the “Effect on kidney NADPH oxidase activity in ACE2KO (in words)” value ([3]; ACE2KO mice, losartan 30 mg/kg/day) was “normalization of NADPH oxidase activity”, the “Kidney cortex NADPH oxidase activity, percent of WT controls” value ([3]; losartan 10 mg/kg/day in drinking water, n = 4, vehicle WT 100 ± 20%, P < 0.05, vehicle ACE2KO 181 ± 24%, mean ± SEM, SEM) was 201 ± 22% and the “Kidney cortex NADPH oxidase activity, percent of WT controls” value ([3]; losartan 30 mg/kg/day in drinking water, n = 5, vehicle WT 100 ± 18% (n = 10), P = 0.709, mean ± SEM, SEM) was 83 ± 29%.
